Experiment [1] addresses T1, Olfr1377 (Mus musculus, UniProt B2RQ46).
T1 sequence (B2RQ46 1-307): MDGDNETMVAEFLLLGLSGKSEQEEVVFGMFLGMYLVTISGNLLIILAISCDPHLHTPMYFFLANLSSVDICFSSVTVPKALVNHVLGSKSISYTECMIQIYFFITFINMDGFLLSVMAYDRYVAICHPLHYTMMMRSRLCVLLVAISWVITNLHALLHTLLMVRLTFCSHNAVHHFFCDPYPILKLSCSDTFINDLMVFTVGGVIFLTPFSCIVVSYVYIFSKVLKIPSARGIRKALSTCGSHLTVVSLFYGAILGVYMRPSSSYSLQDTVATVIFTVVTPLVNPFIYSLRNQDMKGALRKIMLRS
Briefly: CRE-luciferase reporter assay in Hana3A cells. The experiment is classed as cell-based. Set-up: expressed from plasmid in Hana3A cells with RTP1S and M3R. (In general: Reporter assays use an easily measured gene product as a stand-in for the process of interest.)

Experiment [2] concerns the target T1, Olfr1377. Briefly: in vivo two-photon GCaMP6s imaging of the receptor-tagged glomerulus. Conditions: agonist; estimated delivered odorant concentration (olfactometer), anesthetized mice. Set-up: native receptor in mKate2-labelled olfactory sensory neurons (IRES-mKate2 after the CDS, receptor unaltered).
The next experiment deals with T2, Olfr881 (Mus musculus, UniProt Q8VF63).
T2 construct: gene Or8b35; native receptor in mKate2-labelled olfactory sensory neurons (IRES-mKate2 after the CDS, receptor unaltered)
T2 sequence (Q8VF63 1-314): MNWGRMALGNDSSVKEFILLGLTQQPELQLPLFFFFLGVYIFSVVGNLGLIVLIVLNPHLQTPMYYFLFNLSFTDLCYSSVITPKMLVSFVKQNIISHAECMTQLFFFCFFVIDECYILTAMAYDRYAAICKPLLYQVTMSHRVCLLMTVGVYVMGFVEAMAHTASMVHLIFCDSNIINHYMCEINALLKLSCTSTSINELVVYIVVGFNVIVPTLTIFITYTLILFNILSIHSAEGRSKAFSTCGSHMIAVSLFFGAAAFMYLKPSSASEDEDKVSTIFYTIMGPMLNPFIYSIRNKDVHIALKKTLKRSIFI
Description: in vivo two-photon GCaMP6s imaging of the receptor-tagged glomerulus; pS6-IP RNA-Seq. Conditions: agonist; inhaled odorant, anesthetized mice (imaging).

Experiment [3] concerns the target T1, Olfr1377. Description: in vivo two-photon GCaMP6s imaging of the receptor-tagged glomerulus. Conditions: agonist; inhaled odorant on the order of 10^0 nM, anesthetized mice. The arrangement: native receptor in mKate2-labelled olfactory sensory neurons (IRES-mKate2 after the CDS, receptor unaltered).

SMILES strings stand for the structures.

For `COc1ccc(C(C)=O)cc1` [4-methoxyacetophenone], on Olfr1377 [1], the EC50 was 0.008 µM. Moreover, on Olfr1377 [2], the “in vivo response threshold” value is on record as ~ 10^−13 M.

At Olfr1377 [1], `CC(=O)c1ccc(C)cc1` [4-methylacetophenone] yielded a concentration giving a half-maximal response (EC50) of 1 µM. For the same compound, on Olfr881, the “in vivo two-photon GCaMP6s imaging of the receptor-tagged glomerulus; pS6-IP RNA” value was “both Olfr1377 and Olfr881 exhibited robust responses to low concentrations of 4-methylacetophenone”.

Consider `COc1ccc(C=O)cc1` [p-anisaldehyde], for which the “glomerular response to odorant” value on Olfr1377 [3] was “Olfr1377 showed strong responses to p-anisaldehyde, acetophenone, and the aliphatic ketone 4-methyl-3-penten-2-one”.

With `CC(=O)c1ccccc1` [acetophenone], the EC50 at Olfr1377 [1] came out at 10.1 µM.

Regarding `CC(=O)C=C(C)C` [4-methyl-3-penten-2-one], the “glomerular response to odorant” value on Olfr1377 [3] was “Olfr1377 showed strong responses to p-anisaldehyde, acetophenone, and the aliphatic ketone 4-methyl-3-penten-2-one”.

`CC(=O)c1ccccc1O` [2′-hydroxyacetophenone] yielded an EC50 on Olfr1377 [1] of 300 µM.

One may read the EC50 as the concentration that produces a half-maximal response. Low values mean higher potency in that assay, high ones lower potency in that assay.

The record behind these values is PMC9437035, “Decoding the olfactory map through targeted transcriptomics links murine olfactory receptors to glomeruli” (Nature Communications, 2022).
